Measurements published in article PMC12389711, “Study on the Excretion of a New Antihypertensive Drug 221s (2,9) in Rats” (Pharmaceuticals, 2025).
Where two headings read alike, the source gives them in different places.

What was measured:
[1] = Excretion study of unchanged drug in urine, feces and bile after oral administration (UPLC-MS/MS); format: in vivo, Sprague-Dawley rats; details: 30 mg/kg oral; for dose excreted: male, Sprague-Dawley, rat, at 72 h
Procedure: According to previous data, analytical separation was performed using an ultra-performance liquid chromatography-tandem mass spectrometry (UPLC-MS/MS) platform comprising a Waters ACQUITY UPLC H-Class (Waters, Milford, CT, USA) system coupled to an AB Sciex Triple Quad 6500 mass spectrometer (AB Sciex, Boston, MA, USA). Chromatographic resolution was achieved on a Waters ACQUITY UPLC BEH C18 column (1.7 μm, 2.1 × 50 mm) maintained at 40 °C. The mobile phase system incorporated two components: solvent A (0.02% formic acid and 5 mM NH4F in deionized water) and solvent B (acetonitrile), delivered at 0.2 mL/min with a 10 μL injection volume. The gradient program was configured as follows: 55% solvent A (0.0–0.6 min), 5% solvent A (0.6–2.5 min), followed by re-equilibration at 55% solvent A (2.5–5.0 min).
Mass spectrometric detection utilized positive electrospray ionization (ESI+) in MRM mode, monitoring precursor-to-product ion transitions at m/z 525.1→389.1 (221s (2,9)) and 357.0→220.9 (IS). Instrument parameters were optimized as follows: curtain gas 25 psi, ion source temperature 500 °C, GS1/GS2 pressures 50/40 psi, ion spray voltage 5 kV, and collision gas pressure 10 psi. Compound-dependent parameter settings included decluttering potential (DP), entrance potential (EP), collision cell exit potential (CXP), and collision energy (CE) of 160/10/5/63 V for 221s (2,9) and 70/10/5/20 V for IS. Data processing was executed using Analyst software (v1.6.3).
Six male Sprague-Dawley (SD) rats aged 8–10 weeks (body weight: 220–250 g) were individually housed in metabolic cages. Following a 12 h fasting period with free access to water, baseline urinary and fecal samples were collected as blank controls prior to drug administration. Samples of urine and feces were collected from 0–4 h, 4–8 h, 8–12 h, 12–24 h, 24–36 h, 36–48 h, 48–60 h, 60–72 h, and 72–84 h post-administration of 221s (2,9) with an oral dosage of 30 mg/kg. Urine samples were quantitatively measured for volume before storage at −80 °C while fecal samples were dried, pulverized, and weighed prior to preservation at −80 °C.
Six male SD rats were fasted for 12 h prior to drug administration, with free access to water. After being anesthetized with isoflurane, the rats were positioned supine on surgical platforms for common bile duct cannulation. Blank bile samples were collected following stabilization of bile flow. Following oral gavage of 30 mg/kg 221s (2,9), bile samples were sequentially collected during 0–2 h, 2–4 h, 4–8 h, 8–12 h, 12–24 h, 24–36 h, 36–48 h, and 48–72 h intervals. All biliary specimens were volumetrically measured and cryopreserved at −80 °C for subsequent analysis. Hydration maintenance was ensured through intraperitoneal administration of physiological saline during experimental procedures.
A total of 10 μL of IS (1 μg/mL) was added to each urinary sample (100 μL), followed by the addition of three volumes of acetonitrile. The mixtures were vortexed and centrifuged twice. Then, the supernatants were concentrated, lyophilized and reconstituted in 100 μL of acetonitrile. The supernatants were subjected to instrumental analysis after final centrifugation.
Fecal samples (100 mg) were homogenized with three volumes of saline via ultrasonication for 10 min. Then, 10 μL of IS (1 μg/mL) was added, before adding three volumes of acetonitrile. […] After vortexing and dual centrifugation, the supernatant was concentrated, lyophilized, and reconstituted in 100 μL of acetonitrile. The supernatants were subjected to instrument for analysis after final centrifugation.
Biliary samples (100 μL) were precisely aliquoted and added with 10 μL IS (1 μg/mL). Following homogenization, three volumes of acetonitrile were added to precipitate impurities. After vortexing and centrifuging twice, the supernatant was concentrated, lyophilized, and reconstituted in 100 μL of acetonitrile. […]

[2] = tested on: ACE; assay: ACE content in murine serum, cerebral tissue and renal compartments (preliminary data); format: in vivo; details: cerebral tissue, renal compartments
[3] = tested on: spontaneously hypertensive rats (SHR); assay: Serum creatinine and renal NOX2 expression in SHR; format: in vivo, rat
[4] = Stability in rat urine, feces and bile matrices (QC samples); format: in vitro ADME
Procedure: The stability of 221s (2,9) in rat urine, feces, and bile matrices was evaluated using QC samples at three concentration levels (10, 1000, and 1600 ng/mL) across six replicates under four conditions per matrix: three freeze–thaw cycles, short-term storage (room temperature, 2 h), long-term storage (−80 °C, 30 days), and autosampler rack storage (4 °C, 24 h). Stability was quantified by comparing post-storage concentrations (normalized to freshly prepared QC samples analyzed in the same batch) with nominal values, with deviations ≤15% considered acceptable. Dilution reliability was assessed by 5-fold dilution of QC samples (1000/1600 ng/mL) in each matrix using blank rat plasma. Dilution accuracy was verified by comparing measured concentrations (post-dilution factor correction) to nominal values, with acceptable criteria defined as ≤15% relative error (RE) and ≤15% relative standard deviation (RSD).

[5] = tested on: spontaneously hypertensive rats (SHR); design: method as in PMID 37446639; details: cited from earlier work
[6] = tested on: mice; design: method as in doi:10.19803/j.1672-8629.20220529; details: cited from earlier work
[7] = tested on: angiotensin II (Ang II) and angiotensin-converting enzyme (ACE); design: method as in PMID 37446639; details: SHR; cited from earlier work
[8] = design: method as in PMID 23607051; details: cited from earlier work

CC(NC(=O)C(O)Cc1ccc(O)c(O)c1)C(=O)N1CCCC1C(=O)OC1CC2CCC1(C)C2(C)C (stereo not drawn) [221s (2,9)]
cumulative fecal output ([1]; feces, at 48 h, rats, unchanged drug): 36,726.31 ± 5507 ng | fecal excretion rate ([1]; feces, between 4 and 8 h, rats, unchanged drug): 7994.29 ± 953.75 ng/h | dose excreted ([1]; bile, bile duct cannulated rats, read-out: recovery of unchanged drug in bile (accumulative excretion rate, % of administered dose)): 0.00044 ± 2e-05% | dose excreted ([1]; feces, rats, read-out: recovery of unchanged drug in feces (accumulative excretion rate, % of administered dose)): 0.73 ± 0.069% | dose excreted ([1]; urine, rats, read-out: recovery of unchanged drug in urine (accumulative excretion rate, % of administered dose)): 0.02 ± 0.021% | total recovery of unchanged drug across all matrices (% of administered dose) ([1]; urine + feces + bile, over 72 h, rats): below 1% | peak urinary excretion rate ([1]; urine, at 8 h post-dosing, rats, unchanged drug): 138.81 ± 15.56 ng/h | cumulative urinary excretion ([1]; urine, plateau by 48 h, rats, unchanged drug): 1479.81 ± 155.7 ng | ACE content [2]: reduces ACE content | decrease of serum creatinine level ([3]; p < 0.01): 38.99% | downregulation of renal NOX2 expression ([3]; p < 0.05): 16.23% | Stability RE (%) ([4]; bile, autosampler rack (4 °C) for 24 h, spiked 10 ng/mL): −4.4% | Stability RE (%) ([4]; bile, autosampler rack (4 °C) for 24 h, spiked 1000 ng/mL): −3.2% | Stability RE (%) ([4]; bile, autosampler rack (4 °C) for 24 h, spiked 1600 ng/mL): −3.8% | Stability RE (%) ([4]; bile, room temperature for 2 h, spiked 10 ng/mL): −5.2% | Stability RE (%) ([4]; bile, room temperature for 2 h, spiked 1000 ng/mL): −4.5% | Stability RE (%) ([4]; bile, room temperature for 2 h, spiked 1600 ng/mL): 5.1% | Stability RE (%) ([4]; bile, three freeze/thaw cycles, spiked 10 ng/mL): −8.4% | Stability RE (%) ([4]; bile, three freeze/thaw cycles, spiked 1000 ng/mL): −4.1% | Stability RE (%) ([4]; bile, three freeze/thaw cycles, spiked 1600 ng/mL): 4.2% | Stability RE (%) ([4]; bile, −80 °C for 30 days, spiked 10 ng/mL): −3.1% | Stability RE (%) ([4]; bile, −80 °C for 30 days, spiked 1000 ng/mL): 1.5% | Stability RE (%) ([4]; bile, −80 °C for 30 days, spiked 1600 ng/mL): 3.4% | Stability RE (%) ([4]; feces, autosampler rack (4 °C) for 24 h, spiked 10 ng/mL): −4.9% | Stability RE (%) ([4]; feces, autosampler rack (4 °C) for 24 h, spiked 1000 ng/mL): −2.2% | Stability RE (%) ([4]; feces, autosampler rack (4 °C) for 24 h, spiked 1600 ng/mL): 4.6% | Stability RE (%) ([4]; feces, room temperature for 2 h, spiked 10 ng/mL): −6.7% | Stability RE (%) ([4]; feces, room temperature for 2 h, spiked 1000 ng/mL): −3.6% | Stability RE (%) ([4]; feces, room temperature for 2 h, spiked 1600 ng/mL): −4.7% | Stability RE (%) ([4]; feces, three freeze/thaw cycles, spiked 10 ng/mL): −5.3% | Stability RE (%) ([4]; feces, three freeze/thaw cycles, spiked 1000 ng/mL): −4.8% | Stability RE (%) ([4]; feces, three freeze/thaw cycles, spiked 1600 ng/mL): −3.2% | Stability RE (%) ([4]; feces, −80 °C for 30 days, spiked 10 ng/mL): −6.4% | Stability RE (%) ([4]; feces, −80 °C for 30 days, spiked 1000 ng/mL): −5.3% | Stability RE (%) ([4]; feces, −80 °C for 30 days, spiked 1600 ng/mL): 2.8% | degradation in urinary/fecal/biliary samples ([4]; room temperature 2 h, three freeze-thaw cycles, −80 °C 30 days, 4 °C autosampler 24 h): no significant degradation | Stability RE (%) ([4]; urine, autosampler rack (4 °C) for 24 h, spiked 10 ng/mL): −7.3% | Stability RE (%) ([4]; urine, autosampler rack (4 °C) for 24 h, spiked 1000 ng/mL): −6.3% | Stability RE (%) ([4]; urine, autosampler rack (4 °C) for 24 h, spiked 1600 ng/mL): 3.9% | Stability RE (%) ([4]; urine, room temperature for 2 h, spiked 10 ng/mL): −12.5% | Stability RE (%) ([4]; urine, room temperature for 2 h, spiked 1000 ng/mL): −1.5% | Stability RE (%) ([4]; urine, room temperature for 2 h, spiked 1600 ng/mL): 3.4% | Stability RE (%) ([4]; urine, three freeze/thaw cycles, spiked 10 ng/mL): −9.4% | Stability RE (%) ([4]; urine, three freeze/thaw cycles, spiked 1000 ng/mL): −6.4% | Stability RE (%) ([4]; urine, three freeze/thaw cycles, spiked 1600 ng/mL): −2.6% | Stability RE (%) ([4]; urine, −80 °C for 30 days, spiked 10 ng/mL): −8.7% | Stability RE (%) ([4]; urine, −80 °C for 30 days, spiked 1000 ng/mL): −5.4% | Stability RE (%) ([4]; urine, −80 °C for 30 days, spiked 1600 ng/mL): −5.5% | antihypertensive efficacy compared with captopril [5]: comparable to that of captopril | reduction of diastolic blood pressure [5]: 35 mmHg | reduction of systolic blood pressure [5]: 50 mmHg | effects on body weight, dietary intake, histopathological parameters of liver, lungs and kidneys ([6]; at 3000 mg/kg oral gavage): no substantial effects | acute toxicity ([6]; oral gavage): no significant acute toxicity | maximum tolerated dose ([6]; oral gavage): 3000 mg/kg | serum level of angiotensin II (Ang II) [7]: significantly reduced | serum level of angiotensin-converting enzyme (ACE) [7]: significantly reduced

CC1(C)C2CCC1(C)C(OC(=O)c1cc(O)c(O)c(O)c1)C2 (stereo not drawn) [bornyl gallate]
tissue distribution [8]: pronounced renal accumulation alongside measurable brain distribution
